The target in one data set is T1, SGLT1 (Homo sapiens, UniProt P13866).
T1 sequence (P13866 1-664): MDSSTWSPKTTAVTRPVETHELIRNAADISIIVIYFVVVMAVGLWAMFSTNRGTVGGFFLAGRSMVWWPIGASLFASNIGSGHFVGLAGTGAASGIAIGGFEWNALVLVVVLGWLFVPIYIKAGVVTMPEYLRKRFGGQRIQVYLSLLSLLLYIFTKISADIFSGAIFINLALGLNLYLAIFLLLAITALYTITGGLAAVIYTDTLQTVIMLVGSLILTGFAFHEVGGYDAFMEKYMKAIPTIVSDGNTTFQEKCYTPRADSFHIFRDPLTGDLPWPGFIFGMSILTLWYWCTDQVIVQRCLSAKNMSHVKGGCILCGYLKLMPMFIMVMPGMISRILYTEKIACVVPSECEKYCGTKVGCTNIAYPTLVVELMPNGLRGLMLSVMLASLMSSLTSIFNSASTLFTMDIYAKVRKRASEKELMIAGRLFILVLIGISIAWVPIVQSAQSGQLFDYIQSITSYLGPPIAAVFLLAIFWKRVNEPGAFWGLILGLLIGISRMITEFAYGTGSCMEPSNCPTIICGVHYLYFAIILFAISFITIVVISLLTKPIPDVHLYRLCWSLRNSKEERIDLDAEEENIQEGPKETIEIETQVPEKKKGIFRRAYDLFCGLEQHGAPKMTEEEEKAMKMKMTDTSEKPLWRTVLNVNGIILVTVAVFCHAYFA
Particulars: aspalathin 100 µM; 100 µM phloridzin (SGLT1). Here is the method:
(§1) The cell monolayers were equilibrated briefly with transport buffer, pH 6.0 (HBSS with 2-(N-morpholino) ethanesulphonic acid (MES)) on the apical side and pH 7.4 (HBSS with HEPES) on the basolateral side, to remove traces of the culture media. Following this, transport buffers were added for 30 min prior to the addition of treatment (inhibitors were added during this step when required, as well as during the subsequent treatment incubation step). After equilibration, the plates containing transport medium were incubated for 30 min at 37 °C at 5% CO2 in 95% humidified air and the TEER value of the monolayer determined. […] For basolateral-to-apical compartment studies, 2.4 mL of treatment at the same concentrations in HBSS (pH 7.4), was added to the basolateral compartment.
(§2) To assess whether aspalathin was co-transported with glucose, its transport (100 µM) at both high (20.5 mM) and low (5.5 mM) glucose concentrations, mimicking the intestinal lumen glucose concentrations pre- and post-meals, was monitored. This was followed by experiments performed in the presence and absence of SGLT1 (100 µM phloridzin), GLUT2 (100 µM phloretin) and efflux, PgP (100 µM verapamil) inhibitors.
(§3) Samples (1.2 mL) were withdrawn from the basolateral or the apical compartment to measure the concentration of aspalathin uptake and efflux, respectively at 0, 0.5, 1, 1.5, and 2 h under sink conditions (the sample aliquot replaced with equal volume of relevant transport buffer). Sample aliquots (350 µL) were frozen in liquid nitrogen after the addition of ascorbic acid (35 µL of 10% solution) and stored at −65 °C until HPLC analysis. Results were corrected for dilution and expressed as cumulative transport (% of initial dose) as a function of time. Papp (cm/s) for bi-directional transport studies was calculated as previously described. Transport of other major flavonoids in the matrices, i.e., nothofagin, the 3-deoxy analogue of aspalathin and its flavone derivatives, orientin and isoorientin, were also determined.

The target in a further data set is PgP (Homo sapiens, UniProt P08183). To be noted: aspalathin 100 µM; 100 µM verapamil (PgP). Here is the method: as §1, §2, §3
Data set [1] in a line: Stability of aspalathin (in SB1) in water and HEPES buffer. Type of data set: physicochemical. To be noted: 2 h incubation, aspalathin in extract SB1.
Data set [2] can be described thus: Kinetic solubility assay (miniaturised shake flask). Type of data set: physicochemical. Particulars: 2 h, 25 °C, 2% DMSO. Here is the method: The kinetic solubility assay was performed using a miniaturised shake flask method. A 10 mM stock solution of aspalathin was used to prepare calibration standards (10–220 µM) in dimethyl sulphoxide (DMSO), and to spike (1:50) duplicate aqueous samples of phosphate buffered saline (pH 6.5), 0.01 M HCl (pH 2), and FaSSIF (pH 6.5), with a final DMSO concentration of 2%. After shaking for 2 h at 25 °C, the solutions were filtered (multiscreen filter plates, 0.45 µm low-binding, hydrophilic polytetrafluoroethylene (PTFE), Merck) and analysed by means of HPLC-DAD (Agilent 1200 Rapid Resolution HPLC; Agilent Technologies, Inc., Santa Clara, CA, USA). Best fit calibration curves were constructed using the calibration standards, which were used to determine the solubility of the aqueous samples [43].

The structures appear in SMILES notation. Marks after values point to notes of the source that are not given here.

PgP, sequence (P08183 whole entry): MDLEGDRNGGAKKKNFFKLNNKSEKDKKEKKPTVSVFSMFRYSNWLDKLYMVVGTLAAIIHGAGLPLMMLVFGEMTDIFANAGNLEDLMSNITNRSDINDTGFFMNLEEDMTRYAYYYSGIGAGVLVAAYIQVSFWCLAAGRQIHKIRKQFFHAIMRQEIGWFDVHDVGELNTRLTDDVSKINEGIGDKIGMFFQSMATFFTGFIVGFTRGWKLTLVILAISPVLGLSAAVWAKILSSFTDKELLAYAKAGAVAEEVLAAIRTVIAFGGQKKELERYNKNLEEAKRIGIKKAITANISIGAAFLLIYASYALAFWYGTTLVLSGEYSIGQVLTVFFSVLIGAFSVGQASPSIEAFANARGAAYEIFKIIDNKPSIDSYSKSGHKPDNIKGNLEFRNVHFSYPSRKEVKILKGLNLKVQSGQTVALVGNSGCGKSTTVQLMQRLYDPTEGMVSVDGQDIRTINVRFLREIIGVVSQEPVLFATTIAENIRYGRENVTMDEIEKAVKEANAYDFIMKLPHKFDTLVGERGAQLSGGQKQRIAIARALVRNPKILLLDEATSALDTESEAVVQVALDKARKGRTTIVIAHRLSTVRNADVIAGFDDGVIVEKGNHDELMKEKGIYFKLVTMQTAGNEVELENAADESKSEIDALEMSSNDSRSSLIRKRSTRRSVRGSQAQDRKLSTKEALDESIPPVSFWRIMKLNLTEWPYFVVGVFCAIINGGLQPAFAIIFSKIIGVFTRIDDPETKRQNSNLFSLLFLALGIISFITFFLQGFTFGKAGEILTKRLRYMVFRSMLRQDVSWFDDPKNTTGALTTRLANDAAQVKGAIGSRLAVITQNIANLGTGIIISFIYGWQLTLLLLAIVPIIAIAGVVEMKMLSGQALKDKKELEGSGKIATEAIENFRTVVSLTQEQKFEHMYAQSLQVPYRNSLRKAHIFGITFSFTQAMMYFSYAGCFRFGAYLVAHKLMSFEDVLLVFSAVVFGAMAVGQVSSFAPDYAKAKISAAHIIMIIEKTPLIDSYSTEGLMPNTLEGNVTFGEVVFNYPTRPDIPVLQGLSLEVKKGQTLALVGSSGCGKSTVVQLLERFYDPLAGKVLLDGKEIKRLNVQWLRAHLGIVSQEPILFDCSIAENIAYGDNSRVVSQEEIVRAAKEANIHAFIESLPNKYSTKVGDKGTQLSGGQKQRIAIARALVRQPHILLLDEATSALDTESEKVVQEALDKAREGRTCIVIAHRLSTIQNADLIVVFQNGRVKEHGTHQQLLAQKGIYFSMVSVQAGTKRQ

With `O=C(CCc1ccc(O)c(O)c1)c1c(O)cc(O)c([C@@H]2O[C@H](CO)[C@@H](O)[C@H](O)[C@H]2O)c1O` [Aspalathin], at SGLT1, the “Efflux Ratio + Inhibitor (phloridzin)” value is listed as 0.99 ^c, the “Papp a-b + Inhibitor (phloridzin)” value is reported as 1.47 ± 1.10 ^c ×10^−6 cm/s and the “Papp b-a + Inhibitor (phloridzin)” value is 1.47 ± 0.9 ^c ×10^−6 cm/s. For the same molecule, on PgP, the “Efflux Ratio + Inhibitor (verapamil)” value is 1.1 ^c, the “Papp a-b + Inhibitor (verapamil)” value is 1.84 ± 0.20 ^c ×10^−6 cm/s and the “Papp b-a + Inhibitor (verapamil)” value is 1.94 ± 0.68 ^c ×10^−6 cm/s. The molecule further yielded a percentage aspalathin degradation in data set [1] (HEPES buffer pH 6) of 10%. The molecule also displayed a percentage aspalathin degradation in data set [1] (HEPES buffer pH 7.4) of 11%. The molecule also gave a percentage aspalathin degradation in data set [1] (deionised water) of 1%. Further, the “Kinetic solubility at pH 2” value in data set [2] (0.01 M HCl (pH 2)) is on record as 153 µM. Moreover, in data set [2] (FaSSIF (pH 6.5)), the “Kinetic solubility in FaSSIF at pH 6.5” value is recorded as 119 µM. The “Kinetic solubility at pH 6.5” value in data set [2] (phosphate buffered saline (pH 6.5)) is recorded as 123 µM.

The values above are taken from paper PMC6154319, “Intestinal Transport Characteristics and Metabolism of C-Glucosyl Dihydrochalcone, Aspalathin” (Molecules : A Journal of Synthetic Chemistry and Natural …, 2017).
